{
  "source": "paper PMC6300978",
  "about": "(Chemico-biological interactions, 2015)",
  "key": {"[1]": {"assay": "GA glucuronidation kinetics in human liver microsomes", "type": "in vitro ADME", "conditions": "HLM; for microsomal CLint / Km at 60 min: both, human; for microsomal CLint: human liver microsomes; for Km at 60 min: liver microsomes, pH 7.4, Km (KS), Michaelis–Menten"}, "[2]": {"assay": "GA glucuronidation kinetics in rat liver microsomes", "type": "in vitro ADME, Sprague-Dawley rats", "conditions": "for microsomal CLint: rat liver microsomes"}, "[3]": {"assay": "GA glucuronidation kinetics in rat intestinal microsomes", "type": "in vitro ADME, Sprague-Dawley rats"}, "[4]": {"assay": "GA glucuronidation kinetics in beagle dog liver microsomes", "type": "in vitro ADME, beagle dogs", "conditions": "DLM; for microsomal CLint / Km at 30 min: beagle, dog; for microsomal CLint: dog liver microsomes; for Km at 30 min: liver microsomes, pH 7.4, Km (KS), Michaelis–Menten"}, "[5]": {"assay": "GA glucuronidation kinetics in cynomolgus monkey liver microsomes", "type": "in vitro ADME, cynomolgus monkeys", "conditions": "CyLM; for Km at 60 min: cynomolgus monkey, liver microsomes, pH 7.4, Km (KS), Michaelis–Menten"}, "UGT1A3": {"target": "T1, UGT1A3 (Homo sapiens, UniProt P35503)", "T1 sequence (P35503 29-534)": "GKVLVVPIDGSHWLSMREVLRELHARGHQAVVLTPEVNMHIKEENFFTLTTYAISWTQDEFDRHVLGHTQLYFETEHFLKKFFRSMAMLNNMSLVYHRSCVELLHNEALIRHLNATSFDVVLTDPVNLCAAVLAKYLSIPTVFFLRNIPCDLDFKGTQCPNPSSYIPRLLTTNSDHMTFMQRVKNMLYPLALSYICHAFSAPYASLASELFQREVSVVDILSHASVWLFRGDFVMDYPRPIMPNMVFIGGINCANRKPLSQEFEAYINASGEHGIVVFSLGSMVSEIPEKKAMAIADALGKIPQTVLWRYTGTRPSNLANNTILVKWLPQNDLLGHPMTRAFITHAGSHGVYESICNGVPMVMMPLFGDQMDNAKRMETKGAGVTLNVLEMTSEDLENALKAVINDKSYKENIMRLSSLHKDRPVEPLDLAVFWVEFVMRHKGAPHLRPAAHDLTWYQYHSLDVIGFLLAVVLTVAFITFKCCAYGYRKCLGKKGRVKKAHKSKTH", "assay": "GA glucuronidation kinetics by recombinant UGT1A3", "type": "in vitro ADME", "conditions": "recombinant human UGT1A3, pH 7.4"}, "recombinant human UGT1A9": {"target": "T2, recombinant human UGT1A9 (Homo sapiens, UniProt O60656)", "T2 sequence (O60656 26-530)": "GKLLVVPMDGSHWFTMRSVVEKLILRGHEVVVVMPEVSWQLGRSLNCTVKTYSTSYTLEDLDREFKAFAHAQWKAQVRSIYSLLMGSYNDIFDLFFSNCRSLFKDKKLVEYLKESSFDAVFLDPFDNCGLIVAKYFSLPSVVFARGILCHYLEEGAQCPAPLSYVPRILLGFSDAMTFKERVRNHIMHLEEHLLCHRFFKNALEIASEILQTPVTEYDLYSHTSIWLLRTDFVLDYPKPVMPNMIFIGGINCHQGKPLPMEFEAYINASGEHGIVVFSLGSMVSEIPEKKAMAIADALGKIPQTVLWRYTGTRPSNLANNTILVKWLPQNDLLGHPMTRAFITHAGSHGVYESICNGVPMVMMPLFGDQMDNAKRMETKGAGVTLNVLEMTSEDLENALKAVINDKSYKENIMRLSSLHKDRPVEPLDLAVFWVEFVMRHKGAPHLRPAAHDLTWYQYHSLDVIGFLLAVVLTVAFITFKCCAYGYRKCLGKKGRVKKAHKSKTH", "assay": "GA glucuronidation by recombinant UGT1A9", "type": "in vitro ADME", "conditions": "UGT1A9, whole range of substrate concentrations"}, "recombinant human UGT2B7": {"target": "T3, recombinant human UGT2B7 (Homo sapiens, UniProt P16662)", "T3 sequence (P16662 24-529)": "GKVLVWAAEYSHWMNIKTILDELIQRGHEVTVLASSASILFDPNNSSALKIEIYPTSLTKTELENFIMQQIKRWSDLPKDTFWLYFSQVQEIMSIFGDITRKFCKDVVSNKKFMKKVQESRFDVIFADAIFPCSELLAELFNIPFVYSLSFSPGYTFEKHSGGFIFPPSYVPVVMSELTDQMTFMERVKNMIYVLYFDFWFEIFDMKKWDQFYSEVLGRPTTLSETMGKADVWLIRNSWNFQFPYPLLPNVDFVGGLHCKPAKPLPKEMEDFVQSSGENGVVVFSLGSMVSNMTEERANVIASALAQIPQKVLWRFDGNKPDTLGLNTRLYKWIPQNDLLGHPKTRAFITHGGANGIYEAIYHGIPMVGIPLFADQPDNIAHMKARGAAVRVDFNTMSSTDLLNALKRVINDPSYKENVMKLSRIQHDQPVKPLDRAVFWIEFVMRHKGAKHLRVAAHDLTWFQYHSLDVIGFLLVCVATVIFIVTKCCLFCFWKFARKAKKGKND", "assay": "GA glucuronidation by recombinant UGT2B7", "type": "in vitro ADME", "conditions": "UGT2B7, whole range of substrate concentrations"}},
  "data": [
    {"smiles": "CC1(C)C=Cc2c(ccc3c2OC[C@@H](c2ccc(O)cc2O)C3)O1", "note": "[GA, glabridin]", "values": [
      {"measurement": "Vmax", "setting": "[1]; M1 formation", "result": "0.044 ± 0.005", "unit": "nmol/min/mg"},
      {"measurement": "Vmax", "setting": "[1]; M2 formation", "result": "0.25 ± 0.03", "unit": "nmol/min/mg"},
      {"measurement": "microsomal CLint", "setting": "[1]; pH 7.4, Clint, M1 formation, Vmax/Km", "result": 7, "unit": "µL/min/mg"},
      {"measurement": "microsomal CLint", "setting": "[1]; pH 7.4, Clint, M2 formation, Vmax/Km", "result": 10, "unit": "µL/min/mg"},
      {"measurement": "microsomal CLint", "setting": "[1]; pH 7.4, Cltotal, M1 + M2", "result": 17, "unit": "µL/min/mg"},
      {"measurement": "Km at 60 min", "setting": "[1]; M1 formation", "result": "6.3 ± 3.6", "unit": "µM"},
      {"measurement": "Km at 60 min", "setting": "[1]; M2 formation", "result": "24.2 ± 5.7", "unit": "µM"},
      {"measurement": "KSI", "setting": "[2]; RLM, M2 formation", "result": "7.6 ± 3.0", "unit": "µM"},
      {"measurement": "Vmax", "setting": "[2]; RLM, M2 formation", "result": "16 ± 5", "unit": "nmol/min/mg"},
      {"measurement": "Km at 20 min", "setting": "[2]; male, Sprague-Dawley, rat, liver microsomes, pH 7.4", "result": "3.9 ± 1.9", "unit": "µM"},
      {"measurement": "microsomal CLint", "setting": "[2]; male, Sprague-Dawley, rat, pH 7.4, Clint, RLM, M2 formation", "result": 4100, "unit": "µL/min/mg"},
      {"measurement": "microsomal CLint", "setting": "[2]; male, Sprague-Dawley, rat, pH 7.4, Clint, RLM, M2 formation (text)", "result": 4000, "unit": "µL/min/mg"},
      {"measurement": "microsomal CLint", "setting": "[2]; male, Sprague-Dawley, rat, pH 7.4, Cltotal, RLM", "result": 4100, "unit": "µL/min/mg"},
      {"measurement": "KSI", "setting": "[3]; RIM, M2 formation", "result": "5.3 ± 2.5", "unit": "µM"},
      {"measurement": "Vmax", "setting": "[3]; RIM, M2 formation", "result": "19 ± 6", "unit": "nmol/min/mg"},
      {"measurement": "Km at 20 min", "setting": "[3]; male, Sprague-Dawley, rat, intestinal microsomes, pH 7.4", "result": "3.8 ± 1.1", "unit": "µM"},
      {"measurement": "microsomal CLint", "setting": "[3]; male, Sprague-Dawley, rat, rat intestinal microsomes, pH 7.4, Cltotal, RIM", "result": 5000, "unit": "µL/min/mg"},
      {"measurement": "Vmax", "setting": "[4]; M1 formation", "result": "2.4 ± 0.5", "unit": "nmol/min/mg"},
      {"measurement": "Vmax", "setting": "[4]; M2 formation", "result": "6.2 ± 1.3", "unit": "nmol/min/mg"},
      {"measurement": "microsomal CLint", "setting": "[4]; pH 7.4, Clint, M1 formation", "result": 71, "unit": "µL/min/mg"},
      {"measurement": "microsomal CLint", "setting": "[4]; pH 7.4, Clint, M2 formation", "result": 214, "unit": "µL/min/mg"},
      {"measurement": "microsomal CLint", "setting": "[4]; pH 7.4, Cltotal, M1 + M2", "result": 285, "unit": "µL/min/mg"},
      {"measurement": "Km at 30 min", "setting": "[4]; M1 formation", "result": "34 ± 12", "unit": "µM"},
      {"measurement": "Km at 30 min", "setting": "[4]; M2 formation", "result": "29 ± 12", "unit": "µM"},
      {"measurement": "Vmax", "setting": "[5]; M1 formation", "result": "0.051 ± 0.005", "unit": "nmol/min/mg"},
      {"measurement": "Vmax", "setting": "[5]; M2 formation", "result": "0.51 ± 0.09", "unit": "nmol/min/mg"},
      {"measurement": "Km at 60 min", "setting": "[5]; M1 formation", "result": "10 ± 3", "unit": "µM"},
      {"measurement": "Km at 60 min", "setting": "[5]; M2 formation", "result": "35 ± 11", "unit": "µM"},
      {"measurement": "microsomal CLint", "setting": "UGT1A3", "result": 29, "unit": "µL/min/mg"},
      {"measurement": "GA glucuronidation activity", "setting": "recombinant human UGT1A9", "result": "< 0.04", "unit": "nmol/min/mg"},
      {"measurement": "GA glucuronidation activity", "setting": "recombinant human UGT2B7", "result": "< 0.04", "unit": "nmol/min/mg"}
    ]}
  ]
}
